*1 amine or outer side, *2 acyl side, *3 side chain or, on linkers, in order; H or OH if unused. Where a SMILES comes first, the peptide text is derived from it. Side-chain parts run from the residue outwards. [ ]: non-standard residue; d: D form. The star is where a group is joined. C20 diacid = O=C(O)CCCCCCCCCCCCCCCCCCC(=O)*; C18 diacid = O=C(O)CCCCCCCCCCCCCCCCC(=O)*; γGlu = O=C(O)[C@H](CCC(=O)[*:2])N[*:1]; NMeI = CC[C@H](C)[C@H](NC)C(=O)O; Abu = CC[C@H](N)C(=O)O; Pentanoyl = CCCCC(=O)*; AEEA = NCCOCCOCC(=O)O; Aib = CC(C)(N)C(=O)O
What was measured:
[1] = Chemical stability in buffer (pH 7.4 / pH 4.5), % purity loss; format: physicochemical; details: 40° C. vs 5° C., 14 or 28 days; for Buffer stability pH 4.5 % purity loss: 100 mM acetate buffer pH 4.5; for Buffer stability pH 7.4 % purity loss: 100 mM phosphate buffer pH 7.4
Description: Solubility and chemical stability were studied in 100 mM phosphate buffer (pH 7.4) and 100 mM acetate buffer (pH 4.5). Test compound powders were dissolved in both buffers at a target concentration of 10 mg/mL and incubated for 1 hour at room temperature. After centrifugation at 2500 rcf for 15 minutes, 10 μL of supernatant was diluted with 190 μL of the incubation buffer and analyzed by LC-UV (Acquity UPLC-DAD, Waters). Solubility was calculated by comparing the peak area of the test compound in the buffer sample with the peak area of the same compound dissolved at 0.5 mg/mL in water:acetonitrile 1:1, 0.1% formic acid.
From the centrifuged supernatant, two additional 80 μL aliquots were collected and diluted with 160 μL of incubation buffer. One aliquot was stored at 5° C., while the other was stored at 40° C. After 14 or 28 days, the samples were analyzed by LC-UV. Chemical stability was calculated as % loss using the following equations: […]

[2] = target: T1, CFR1R receptor (Homo sapiens, UniProt P34998); test: Activity at anti-target CFR1R receptor, cAMP assay in CRF1R-overexpression CHO-K1 cells; format: cell-based; details: 100% = Sauvagine at 100 nM; for EC50: cAMP
T1 construct: host or cells: CHO-K1 (clone 2)
T1 sequence (P34998 24-415): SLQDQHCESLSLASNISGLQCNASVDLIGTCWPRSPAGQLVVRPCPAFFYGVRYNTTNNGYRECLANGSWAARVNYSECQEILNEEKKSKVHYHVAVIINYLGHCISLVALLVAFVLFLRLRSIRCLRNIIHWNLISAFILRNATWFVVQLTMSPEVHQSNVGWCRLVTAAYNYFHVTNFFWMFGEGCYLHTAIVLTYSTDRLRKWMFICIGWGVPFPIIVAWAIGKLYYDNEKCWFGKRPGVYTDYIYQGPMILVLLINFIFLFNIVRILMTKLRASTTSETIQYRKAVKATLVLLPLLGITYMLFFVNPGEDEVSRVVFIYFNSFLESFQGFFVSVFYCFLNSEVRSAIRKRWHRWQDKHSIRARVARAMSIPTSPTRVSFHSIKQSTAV
How it was run: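 Uses frozen stocks of CHO-K1 clone 2 cells overexpressing human CRF1R, plated at 4000 cells/well final, with cAMP measured by the same protocol as the TeloHAEC line. Full-activation control: 100 nM Sauvagine.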

[3] = target: T2, human CRF2a receptor (Homo sapiens, UniProt Q13324); test: Activity at human CRF2a receptor, cAMP functional assay in TeloHEAC cells; format: cell-based; details: TeloHEAC cells stably expressing human CRF2a receptor, relative to urocortin 2 (100 nM = 100%)
T2 construct: expressed in transfected cells; host or cells: TeloHEAC cells
T2 sequence (Q13324 1-411): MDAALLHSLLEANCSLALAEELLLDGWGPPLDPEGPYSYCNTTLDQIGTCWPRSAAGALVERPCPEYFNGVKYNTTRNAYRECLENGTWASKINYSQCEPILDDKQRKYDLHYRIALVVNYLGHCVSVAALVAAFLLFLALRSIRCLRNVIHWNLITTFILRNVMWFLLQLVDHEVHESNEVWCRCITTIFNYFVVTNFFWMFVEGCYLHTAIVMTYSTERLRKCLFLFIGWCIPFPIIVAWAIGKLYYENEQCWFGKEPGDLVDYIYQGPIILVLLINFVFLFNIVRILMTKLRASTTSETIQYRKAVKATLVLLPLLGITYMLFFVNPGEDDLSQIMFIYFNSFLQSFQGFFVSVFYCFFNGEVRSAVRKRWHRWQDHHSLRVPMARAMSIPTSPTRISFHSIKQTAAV
How it was run: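 TeloHEAC cells stably expressing human CRF2a (10000 cells/well, suspended in HBSS/20 mM HEPES with 2 mM IBMX) were exposed to compounds for 30 min at 37 °C. cAMP was read as the 665/620 nm fluorescence ratio after 1 h at room temperature. EC50 was derived relative to 100 nM urocortin 2, set as 100%.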

| Buffer stability pH 4.5 % purity loss [1] | Buffer stability pH 7.4 % purity loss [1] | Emax (% I) [2] [% I] | EC50 [2] [nM] | EC50 [3] [nM] | SMILES |
| --- | --- | --- | --- | --- | --- |
| 0% | 19% | 6 | > 250 | 5.08 | CC[C@H](C)[C@H](NC(=O)[C@H](CCC(N)=O)NC(=O)[C@H](CCCCN)NC(=O)[C@H](CC(N)=O)NC(=O)[C@@H](NC(=O)[C@H](CCC(=O)O)NC(=O)[C@H](C)NC(=O)[C@H](CCC(N)=O)NC(=O)[C@H](CCC(=O)O)NC(=O)[C@H](CCCNC(=N)N)NC(=O)[C@H](CCC(N)=O)NC(=O)[C@H](CCCCN)NC(=O)[C@H](CCCCN)NC(=O)[C@H](CCC(N)=O)NC(=O)[C@H](CCCCN)NC(=O)[C@H](CCC(=O)O)NC(=O)[C@H](CCC(N)=O)NC(=O)[C@H](CCC(=O)O)NC(=O)[C@H](CC(C)C)NC(=O)[C@H](CC(C)C)NC(=O)[C@@H](NC(=O)[C@H](CCCCN)NC(=O)[C@H](CCCCNC(=O)COCCOCCNC(=O)COCCOCCNC(=O)CC[C@H](NC(=O)CCCCCCCCCCCCCCCCC(=O)O)C(=O)O)NC(=O)[C@H](CC(C)C)NC(=O)[C@H](CCCCN)NC(=O)[C@@H](NC(=O)[C@@H]1CCCN1C(=O)[C@H](NC(=O)[C@H](CC(=O)O)NC(=O)[C@H](CC(C)C)NC(=O)[C@H](CO)NC(=O)[C@H](CC(C)C)NC(=O)[C@@H](N)C(C)C)C(C)C)[C@@H](C)CC)[C@@H](C)CC)[C@@H](C)O)C(=O)N[C@@H](CC(C)C)C(=O)N[C@@H](C)C(=O)N[C@@H](CCC(N)=O)C(=O)N[C@H](C(N)=O)C(C)C [compound 93] (H-VLSLD[dV]PIKLK([AEEA-AEEA-γGlu-C18 diacid])KILLEQEKQKKQREQAETNKQILAQV-NH2) |
| nd/0 ^ % | – | 4 | > 250 | 0.49 | CCCCC(=O)N[C@H](C(=O)N[C@@H](CC(C)C)C(=O)N[C@@H](CO)C(=O)N[C@@H](CC(C)C)C(=O)N[C@@H](CC(=O)O)C(=O)N[C@H](C(=O)N1CCC[C@H]1C(=O)N[C@H](C(=O)N[C@@H](CCCCN)C(=O)N[C@@H](CC(C)C)C(=O)N[C@@H](CCCCNC(=O)COCCOCCNC(=O)COCCOCCNC(=O)CC[C@H](NC(=O)CCCCCCCCCCCCCCCCC(=O)O)C(=O)O)C(=O)N[C@@H](CCCCN)C(=O)N[C@H](C(=O)N[C@@H](CC(C)C)C(=O)N[C@@H](CC(C)C)C(=O)N[C@@H](CCC(=O)O)C(=O)N[C@@H](CCC(N)=O)C(=O)N[C@@H](CCC(=O)O)C(=O)N[C@@H](CCCCN)C(=O)N[C@@H](CCC(N)=O)C(=O)N[C@@H](CCCCN)C(=O)N[C@@H](CCCCN)C(=O)N[C@@H](CCC(N)=O)C(=O)N[C@@H](CCCNC(=N)N)C(=O)N[C@@H](CCC(=O)O)C(=O)N[C@@H](CCC(N)=O)C(=O)N[C@@H](C)C(=O)N[C@@H](CCC(=O)O)C(=O)N[C@H](C(=O)N[C@@H](CC(N)=O)C(=O)N[C@@H](CCCCN)C(=O)N[C@@H](CCC(N)=O)C(=O)N[C@H](C(=O)N[C@@H](CC(C)C)C(=O)N[C@@H](C)C(=O)N[C@@H](CCC(N)=O)C(=O)N[C@H](C(N)=O)C(C)C)[C@@H](C)CC)[C@@H](C)O)[C@@H](C)CC)[C@@H](C)CC)C(C)C)C(C)C [compound 96] (Pentanoyl-VLSLDVPIKLK([AEEA-AEEA-γGlu-C18 diacid])KILLEQEKQKKQREQAETNKQILAQV-NH2) |
| 0/0 ^ % | 0/0 ^ % | 5 | > 250 | 0.47 | CC[C@H](NC(=O)[C@H](CC(N)=O)NC(=O)[C@@H](NC(=O)[C@H](CCC(=O)O)NC(=O)[C@H](C)NC(=O)[C@H](CCC(N)=O)NC(=O)[C@H](CCC(=O)O)NC(=O)[C@H](CCCNC(=N)N)NC(=O)[C@H](CCC(N)=O)NC(=O)[C@H](CCCCN)NC(=O)[C@H](CCCCN)NC(=O)[C@H](CCC(N)=O)NC(=O)[C@H](CCCCN)NC(=O)[C@H](CCC(=O)O)NC(=O)[C@H](CCC(N)=O)NC(=O)[C@H](CCC(=O)O)NC(=O)[C@H](CC(C)C)NC(=O)[C@H](CC(C)C)NC(=O)[C@@H](NC(=O)[C@H](CCCCN)NC(=O)[C@H](CCCCNC(=O)COCCOCCNC(=O)COCCOCCNC(=O)CC[C@H](NC(=O)CCCCCCCCCCCCCCCCC(=O)O)C(=O)O)NC(=O)[C@H](CC(C)C)NC(=O)[C@H](CCCCN)NC(=O)[C@@H](NC(=O)[C@@H]1CCCN1C(=O)[C@H](NC(=O)[C@H](CC(=O)O)NC(=O)[C@H](CC(C)C)NC(=O)[C@H](CO)NC(=O)[C@H](CC(C)C)NC(=O)[C@@H](NC(=O)[C@@H](NC(C)=O)[C@@H](C)CC)C(C)C)C(C)C)[C@@H](C)CC)[C@@H](C)CC)[C@@H](C)O)C(=O)N[C@@H](CCC(N)=O)C(=O)N[C@H](C(=O)N[C@@H](CC(C)C)C(=O)N[C@@H](C)C(=O)N[C@@H](CCC(N)=O)C(=O)N[C@H](C(N)=O)C(C)C)[C@@H](C)CC [compound 104] (Ac-IVLSLD[dV]PIKLK([AEEA-AEEA-γGlu-C18 diacid])KILLEQEKQKKQREQAETN[Abu]QILAQV-NH2) |
| 2.6% | 0.0% | 0 | > 250 | 0.11 | CC[C@H](C)[C@H](NC)C(=O)N[C@H](C(=O)N[C@@H](CC(C)C)C(=O)N[C@@H](CO)C(=O)N[C@@H](CC(C)C)C(=O)N[C@@H](CC(=O)O)C(=O)N[C@@H](C(=O)N1CCC[C@H]1C(=O)N[C@H](C(=O)N[C@@H](CCCCN)C(=O)N[C@@H](CC(C)C)C(=O)N[C@@H](CCCCNC(=O)COCCOCCNC(=O)COCCOCCNC(=O)CC[C@H](NC(=O)CCCCCCCCCCCCCCCCCCC(=O)O)C(=O)O)C(=O)N[C@@H](CCCCN)C(=O)N[C@H](C(=O)N[C@@H](CC(C)C)C(=O)N[C@@H](CC(C)C)C(=O)N[C@@H](CCC(=O)O)C(=O)N[C@@H](CCC(N)=O)C(=O)N[C@@H](CCC(=O)O)C(=O)N[C@@H](CCCCN)C(=O)N[C@@H](CCC(N)=O)C(=O)N[C@@H](CCCCN)C(=O)NC(C)(C)C(=O)N[C@@H](CCC(N)=O)C(=O)N[C@@H](CCCNC(=N)N)C(=O)N[C@@H](CCC(=O)O)C(=O)N[C@@H](CCC(N)=O)C(=O)N[C@@H](C)C(=O)N[C@@H](CCC(=O)O)C(=O)N[C@H](C(=O)N[C@@H](CC(N)=O)C(=O)NC(C)(C)C(=O)N[C@@H](CCC(N)=O)C(=O)N[C@H](C(=O)N[C@@H](CC(C)C)C(=O)N[C@@H](C)C(=O)N[C@@H](CCC(N)=O)C(=O)N[C@H](C(N)=O)C(C)C)[C@@H](C)CC)[C@@H](C)O)[C@@H](C)CC)[C@@H](C)CC)C(C)C)C(C)C [compound 239] (H-[NMeI]VLSLD[dV]PIKLK([AEEA-AEEA-γGlu-C20 diacid])KILLEQEKQK[Aib]QREQAETN[Aib]QILAQV-NH2) |
